# Calls of active or inactive are those of the source.
# Experiments:
# Assay type in all cases: functional
# [1] = molecular target: Homeodomain-interacting protein kinase 4 (Homo sapiens, UniProt Q8NE63)
# [2] = molecular target: Protein kinase C delta type (Homo sapiens, UniProt Q05655)
# [3] = molecular target: Serine/threonine-protein kinase PAK 1 (Homo sapiens, UniProt Q13153)
# [4] = molecular target: Dual specificity protein kinase CLK4 (Homo sapiens, UniProt Q9HAZ1)
# [5] = molecular target: Mitogen-activated protein kinase 9 (Homo sapiens, UniProt P45984);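 further: value from a kinome panel profiling assay, MAPK9 panel entry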
# [6] = molecular target: Mitogen-activated protein kinase 8 (Homo sapiens, UniProt P45983);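 further: value comes from one member of a kinome-wide kinase profiling panel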
# [7] = molecular target: Tyrosine-protein kinase ABL1 (Homo sapiens, UniProt P00519)
# [8] = molecular target: Tyrosine-protein kinase JAK2 (Homo sapiens, UniProt O60674);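 further: JAK2 tested as one member of a kinase panel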
# Misshapen-like kinase 1 = Misshapen-like kinase 1 (Homo sapiens, UniProt Q8N4C8);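 further: kinome panel screen with MINK as the panel member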
# [9] = molecular target: Mitogen-activated protein kinase kinase kinase kinase 4 (Homo sapiens, UniProt O95819)
# [10] = molecular target: Testis-specific serine/threonine-protein kinase 2 (Homo sapiens, UniProt Q96PF2);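 further: part of the Navigating the Kinome panel, target entry STK22B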
# [11] = molecular target: Fibroblast growth factor receptor 3 (Homo sapiens, UniProt P22607)
# [12] = molecular target: Tyrosine-protein kinase receptor TYRO3 (Homo sapiens, UniProt Q06418);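 further: TYRO3 value obtained as one member of a kinome-wide profiling panel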
# [13] = molecular target: Serine/threonine-protein kinase Nek4 (Homo sapiens, UniProt P51957)
# [14] = molecular target: Tyrosine-protein kinase Fer (Homo sapiens, UniProt P16591);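 further: FER tested as one member of a kinome panel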
# [15] = molecular target: Cyclin-dependent kinase 5 (Homo sapiens, UniProt Q00535);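 further: CDK5 measured as one member of a kinase profiling panel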
# [16] = molecular target: cAMP-dependent protein kinase catalytic subunit PRKX (Homo sapiens, UniProt P51817)
# [17] = molecular target: RAC-alpha serine/threonine-protein kinase (Homo sapiens, UniProt P31749);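 further: AKT1 affinity measured as one member of a kinome-wide kinase profiling panel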
# [18] = molecular target: Mast/stem cell growth factor receptor Kit (Homo sapiens, UniProt P10721);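 further: KIT entry within a kinase panel assay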
# [19] = molecular target: Cell division cycle 7-related protein kinase (Homo sapiens, UniProt O00311);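 further: value obtained from a kinome-wide kinase panel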
# [20] = molecular target: Serine/threonine-protein kinase TAO1 (Homo sapiens, UniProt Q7L7X3)
# [21] = molecular target: Casein kinase I isoform gamma-1 (Homo sapiens, UniProt Q9HCP0);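 further: measured as the CSNK1G1 member of a kinome profiling panel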
# [22] = molecular target: Ribosomal protein S6 kinase beta-1 (Homo sapiens, UniProt P23443);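 further: measured as one member of a kinome-wide profiling panel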
# [23] = molecular target: Cyclin-dependent kinase 7 (Homo sapiens, UniProt P50613);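 further: value comes from a kinome-wide kinase profiling panel in which CDK7 is one member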
# [24] = molecular target: Tyrosine-protein kinase ITK/TSK (Homo sapiens, UniProt Q08881);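 further: affinity for ITK measured as one member of a broad kinase panel profiling binding across the kinome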
# [25] = molecular target: Tyrosine-protein kinase Fyn (Homo sapiens, UniProt P06241)
# [26] = molecular target: Glycogen synthase kinase-3 alpha (Homo sapiens, UniProt P49840);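 further: GSK3A result taken from a broad kinome-wide kinase panel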
# [27] = molecular target: RAC-gamma serine/threonine-protein kinase (Homo sapiens, UniProt Q9Y243)
# SRSF protein kinase 1 = SRSF protein kinase 1 (Homo sapiens, UniProt Q96SB4);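 further: measured as one member of a kinome-wide kinase profiling panel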
# Ephrin type-A receptor 2 = Ephrin type-A receptor 2 (Homo sapiens, UniProt P29317);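 further: EPHA2 tested as one member of a kinome-wide kinase panel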
# [28] = molecular target: Mitogen-activated protein kinase 13 (Homo sapiens, UniProt O15264)
# [29] = molecular target: Calcium/calmodulin-dependent protein kinase type II subunit beta (Homo sapiens, UniProt Q13554)
# [30] = molecular target: Protein kinase C iota type (Homo sapiens, UniProt P41743);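 further: measured within a kinome-wide kinase panel, PRKCI as panel member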
# [31] = molecular target: MAP kinase-activated protein kinase 2 (Homo sapiens, UniProt P49137);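 further: measured as one member of a kinome-wide kinase panel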
# [32] = molecular target: MAP kinase-activated protein kinase 5 (Homo sapiens, UniProt Q8IW41);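 further: measured as one member of a kinome panel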
# [33] = molecular target: Serine/threonine-protein kinase Chk2 (Homo sapiens, UniProt O96017);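 further: CHEK2 entry within a kinome-wide screening panel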
# [34] = molecular target: Vascular endothelial growth factor receptor 2 (Homo sapiens, UniProt P35968)
# [35] = molecular target: Serine/threonine-protein kinase 3 (Homo sapiens, UniProt Q13188);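 further: measured as one member of a kinome-wide kinase panel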
# [36] = molecular target: Megakaryocyte-associated tyrosine-protein kinase (Homo sapiens, UniProt P42679);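 further: affinity measured as one member of a kinase panel (Navigating the Kinome) against MATK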
# [37] = molecular target: cGMP-dependent protein kinase 1 (Homo sapiens, UniProt Q13976);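 further: value from a kinome panel screen with PRKG1 as the panel member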
# [38] = molecular target: Receptor-type tyrosine-protein kinase FLT3 (Homo sapiens, UniProt P36888);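 further: FLT3 was tested as one member of a kinome-wide kinase panel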
# [39] = molecular target: Serine/threonine-protein kinase 17A (Homo sapiens, UniProt Q9UEE5)
# [40] = molecular target: ALK tyrosine kinase receptor (Homo sapiens, UniProt Q9UM73);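 further: ALK tested as one member of a kinase panel screen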
# [41] = molecular target: Receptor tyrosine-protein kinase erbB-4 (Homo sapiens, UniProt Q15303);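 further: ERBB4 member of a kinome-wide kinase profiling panel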
# [42] = molecular target: Serine/threonine-protein kinase PAK 4 (Homo sapiens, UniProt O96013);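 further: value obtained within a kinome profiling panel in which PAK4 was one of the panel members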
# [43] = molecular target: Serine/threonine-protein kinase PLK1 (Homo sapiens, UniProt P53350);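 further: PLK1 measured as one member of a kinome-wide profiling panel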
# [44] = molecular target: Mitogen-activated protein kinase 1 (Homo sapiens, UniProt P28482)
# Chain of Serine/threonine-protein kinase PAK 4 (O96013 whole entry): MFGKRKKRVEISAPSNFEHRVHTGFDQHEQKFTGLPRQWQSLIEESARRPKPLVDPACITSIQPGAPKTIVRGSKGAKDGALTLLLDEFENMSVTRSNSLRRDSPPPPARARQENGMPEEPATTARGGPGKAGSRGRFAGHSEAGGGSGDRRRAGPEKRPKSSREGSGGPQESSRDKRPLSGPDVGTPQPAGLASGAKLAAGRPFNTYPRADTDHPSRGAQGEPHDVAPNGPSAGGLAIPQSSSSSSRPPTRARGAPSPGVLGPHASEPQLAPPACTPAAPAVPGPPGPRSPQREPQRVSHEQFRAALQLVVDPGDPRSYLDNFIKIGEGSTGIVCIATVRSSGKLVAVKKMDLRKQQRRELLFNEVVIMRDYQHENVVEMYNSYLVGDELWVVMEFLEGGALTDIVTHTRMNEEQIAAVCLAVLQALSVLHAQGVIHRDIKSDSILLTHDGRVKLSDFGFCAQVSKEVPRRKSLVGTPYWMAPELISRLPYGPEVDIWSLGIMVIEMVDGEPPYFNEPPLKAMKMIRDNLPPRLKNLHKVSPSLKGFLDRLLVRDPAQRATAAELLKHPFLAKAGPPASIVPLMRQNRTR
# Chain of Cyclin-dependent kinase 7 (P50613 whole entry): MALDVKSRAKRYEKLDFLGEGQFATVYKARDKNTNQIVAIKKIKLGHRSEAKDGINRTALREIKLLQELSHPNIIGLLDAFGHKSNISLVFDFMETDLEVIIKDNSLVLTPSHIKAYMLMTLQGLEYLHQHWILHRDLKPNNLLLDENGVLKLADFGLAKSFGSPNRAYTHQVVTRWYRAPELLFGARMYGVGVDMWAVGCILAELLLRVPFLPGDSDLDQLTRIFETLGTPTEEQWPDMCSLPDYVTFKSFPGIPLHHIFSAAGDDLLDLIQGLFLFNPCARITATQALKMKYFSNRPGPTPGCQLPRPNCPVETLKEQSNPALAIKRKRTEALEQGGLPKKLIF
# Chain of Tyrosine-protein kinase Fer (P16591 whole entry): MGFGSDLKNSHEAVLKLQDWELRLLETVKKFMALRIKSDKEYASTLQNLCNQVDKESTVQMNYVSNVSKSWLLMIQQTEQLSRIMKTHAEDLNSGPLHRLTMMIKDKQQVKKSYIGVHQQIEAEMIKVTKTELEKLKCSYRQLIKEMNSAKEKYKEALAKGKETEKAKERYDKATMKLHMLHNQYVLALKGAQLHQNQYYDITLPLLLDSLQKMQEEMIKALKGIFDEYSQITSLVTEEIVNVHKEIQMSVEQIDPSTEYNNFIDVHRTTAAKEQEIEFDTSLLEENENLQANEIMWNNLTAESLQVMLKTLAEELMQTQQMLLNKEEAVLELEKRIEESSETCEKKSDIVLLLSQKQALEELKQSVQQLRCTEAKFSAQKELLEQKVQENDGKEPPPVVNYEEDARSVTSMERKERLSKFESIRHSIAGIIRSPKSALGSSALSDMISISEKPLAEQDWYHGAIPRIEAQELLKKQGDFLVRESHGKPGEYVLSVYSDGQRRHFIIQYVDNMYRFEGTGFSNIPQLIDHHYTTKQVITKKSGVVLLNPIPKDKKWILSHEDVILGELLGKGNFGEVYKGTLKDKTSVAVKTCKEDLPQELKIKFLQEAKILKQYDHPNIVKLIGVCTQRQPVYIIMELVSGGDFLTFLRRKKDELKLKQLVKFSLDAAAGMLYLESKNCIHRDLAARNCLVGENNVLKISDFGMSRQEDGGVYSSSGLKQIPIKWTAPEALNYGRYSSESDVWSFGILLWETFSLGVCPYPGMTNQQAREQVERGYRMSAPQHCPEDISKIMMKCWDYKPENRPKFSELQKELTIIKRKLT
# Chain of ALK tyrosine kinase receptor (Q9UM73 whole entry): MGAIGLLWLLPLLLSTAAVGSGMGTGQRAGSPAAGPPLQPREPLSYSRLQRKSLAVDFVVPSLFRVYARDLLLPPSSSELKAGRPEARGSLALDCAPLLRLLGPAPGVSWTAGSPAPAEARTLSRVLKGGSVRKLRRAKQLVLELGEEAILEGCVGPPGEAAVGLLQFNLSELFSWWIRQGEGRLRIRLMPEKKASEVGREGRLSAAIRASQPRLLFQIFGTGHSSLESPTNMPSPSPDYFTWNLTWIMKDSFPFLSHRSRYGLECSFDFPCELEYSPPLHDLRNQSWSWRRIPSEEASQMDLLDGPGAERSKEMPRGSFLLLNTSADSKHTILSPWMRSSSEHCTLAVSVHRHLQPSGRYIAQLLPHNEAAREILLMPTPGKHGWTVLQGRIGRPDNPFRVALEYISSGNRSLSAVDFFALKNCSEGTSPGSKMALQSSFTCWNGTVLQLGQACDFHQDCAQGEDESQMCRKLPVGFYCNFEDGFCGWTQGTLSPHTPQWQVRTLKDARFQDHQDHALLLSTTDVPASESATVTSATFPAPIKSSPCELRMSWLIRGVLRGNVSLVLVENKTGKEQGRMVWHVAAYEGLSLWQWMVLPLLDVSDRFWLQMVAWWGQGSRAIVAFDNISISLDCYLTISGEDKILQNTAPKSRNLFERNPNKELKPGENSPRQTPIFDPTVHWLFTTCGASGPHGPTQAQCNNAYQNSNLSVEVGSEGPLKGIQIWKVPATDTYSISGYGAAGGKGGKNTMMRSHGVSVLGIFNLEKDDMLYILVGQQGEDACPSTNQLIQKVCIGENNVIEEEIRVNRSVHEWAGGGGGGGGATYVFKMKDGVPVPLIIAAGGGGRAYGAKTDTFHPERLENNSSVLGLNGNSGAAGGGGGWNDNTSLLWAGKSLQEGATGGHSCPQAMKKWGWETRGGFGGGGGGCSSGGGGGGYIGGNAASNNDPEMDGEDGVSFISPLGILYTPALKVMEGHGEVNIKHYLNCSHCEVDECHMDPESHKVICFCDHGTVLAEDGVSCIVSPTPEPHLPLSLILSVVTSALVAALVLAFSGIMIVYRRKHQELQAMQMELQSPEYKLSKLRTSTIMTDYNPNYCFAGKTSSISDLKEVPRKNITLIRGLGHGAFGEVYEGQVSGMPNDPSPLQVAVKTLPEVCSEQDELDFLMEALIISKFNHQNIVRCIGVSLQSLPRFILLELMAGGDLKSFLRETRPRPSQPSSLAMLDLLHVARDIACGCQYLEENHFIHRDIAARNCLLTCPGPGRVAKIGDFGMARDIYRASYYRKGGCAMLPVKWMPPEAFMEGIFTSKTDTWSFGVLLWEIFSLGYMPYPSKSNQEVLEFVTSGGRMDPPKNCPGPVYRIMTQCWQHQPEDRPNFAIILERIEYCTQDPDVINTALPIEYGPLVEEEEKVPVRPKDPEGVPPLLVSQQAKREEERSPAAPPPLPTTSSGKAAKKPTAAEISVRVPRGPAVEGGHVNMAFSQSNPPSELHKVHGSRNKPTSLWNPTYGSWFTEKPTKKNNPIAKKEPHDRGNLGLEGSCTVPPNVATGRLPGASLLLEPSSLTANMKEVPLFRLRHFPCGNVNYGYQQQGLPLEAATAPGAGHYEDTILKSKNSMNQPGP
# Chain of SRSF protein kinase 1 (Q96SB4 whole entry): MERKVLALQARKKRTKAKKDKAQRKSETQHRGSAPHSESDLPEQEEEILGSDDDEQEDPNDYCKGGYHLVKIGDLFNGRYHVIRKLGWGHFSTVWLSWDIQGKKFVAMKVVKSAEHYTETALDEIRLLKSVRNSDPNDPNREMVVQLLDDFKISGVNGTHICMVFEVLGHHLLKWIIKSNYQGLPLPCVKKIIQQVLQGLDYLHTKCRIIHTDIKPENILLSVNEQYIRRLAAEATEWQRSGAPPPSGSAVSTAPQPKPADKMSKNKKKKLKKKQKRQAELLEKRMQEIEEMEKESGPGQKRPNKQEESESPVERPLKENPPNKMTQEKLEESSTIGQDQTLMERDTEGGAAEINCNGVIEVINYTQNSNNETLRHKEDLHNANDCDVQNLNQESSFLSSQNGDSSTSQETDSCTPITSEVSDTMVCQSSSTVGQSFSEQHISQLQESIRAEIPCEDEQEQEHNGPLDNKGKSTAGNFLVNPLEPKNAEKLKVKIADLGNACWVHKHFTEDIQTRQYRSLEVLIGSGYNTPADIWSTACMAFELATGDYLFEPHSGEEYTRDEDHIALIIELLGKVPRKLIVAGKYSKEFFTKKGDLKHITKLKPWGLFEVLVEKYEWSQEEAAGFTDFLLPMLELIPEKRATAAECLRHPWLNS
# Chain of Ephrin type-A receptor 2 (P29317 whole entry): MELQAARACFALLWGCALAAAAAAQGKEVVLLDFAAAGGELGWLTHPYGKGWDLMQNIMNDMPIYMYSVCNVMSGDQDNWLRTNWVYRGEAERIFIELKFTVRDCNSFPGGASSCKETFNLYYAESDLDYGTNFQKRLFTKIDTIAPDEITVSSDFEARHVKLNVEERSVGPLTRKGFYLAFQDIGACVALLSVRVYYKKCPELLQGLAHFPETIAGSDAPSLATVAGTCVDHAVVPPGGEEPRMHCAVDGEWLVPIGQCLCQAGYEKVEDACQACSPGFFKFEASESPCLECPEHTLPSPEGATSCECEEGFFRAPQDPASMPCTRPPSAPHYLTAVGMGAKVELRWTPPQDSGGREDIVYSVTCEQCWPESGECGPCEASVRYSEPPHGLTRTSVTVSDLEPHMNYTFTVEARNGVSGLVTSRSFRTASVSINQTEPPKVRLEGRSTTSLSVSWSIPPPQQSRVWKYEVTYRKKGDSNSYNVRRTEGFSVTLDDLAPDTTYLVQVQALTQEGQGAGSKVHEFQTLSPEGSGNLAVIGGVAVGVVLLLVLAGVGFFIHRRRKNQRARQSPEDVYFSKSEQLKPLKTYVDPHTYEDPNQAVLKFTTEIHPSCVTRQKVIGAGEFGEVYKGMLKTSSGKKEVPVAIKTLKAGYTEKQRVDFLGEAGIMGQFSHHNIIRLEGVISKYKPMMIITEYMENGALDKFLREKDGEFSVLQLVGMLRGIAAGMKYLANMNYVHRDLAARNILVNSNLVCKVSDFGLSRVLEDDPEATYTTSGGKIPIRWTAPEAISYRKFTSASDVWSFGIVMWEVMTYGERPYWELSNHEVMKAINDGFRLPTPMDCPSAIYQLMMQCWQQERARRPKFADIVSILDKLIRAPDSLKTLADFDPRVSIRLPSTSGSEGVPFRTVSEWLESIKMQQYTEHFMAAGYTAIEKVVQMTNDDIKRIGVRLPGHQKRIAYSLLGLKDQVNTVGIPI
smiles,measurement,setting,value
NC1CCCCC1Nc1nccc(-c2c[nH]c3ncccc23)n1 (configuration not stated),Ki,[1],1580 nM (active)
same,Ki,[2],200 nM (active)
same,Ki,[3],3160 nM (active)
same,Ki,[4],6.31 nM (active)
same,Ki,[5],> 3980 nM (inactive)
same,Ki,[6],> 3160 nM (inactive)
same,Ki,[7],> 631 nM (inactive)
same,Ki,[8],794 nM (active)
same,Ki,Misshapen-like kinase 1,126 nM (active)
same,Ki,[9],31.6 nM (active)
same,Ki,[10],100 nM (active)
same,Ki,[11],> 2000 nM (inactive)
same,Ki,[12],> 2000 nM (inactive)
same,Ki,[13],3160 nM (active)
same,Ki,[14],1580 nM (active)
same,Ki,[15],50.1 nM (active)
same,Ki,[16],31.6 nM (active)
same,Ki,[17],631 nM (active)
same,Ki,[18],> 1260 nM (inactive)
same,Ki,[19],10 nM (active)
same,Ki,[20],3980 nM (active)
same,Ki,[21],316 nM (active)
same,Ki,[22],501 nM (active)
same,Ki,[23],6.31 nM (active)
same,Ki,[24],> 1580 nM (inactive)
same,Ki,[25],> 794 nM (inactive)
same,Ki,[26],158 nM (active)
same,Ki,[27],501 nM (active)
same,Ki,SRSF protein kinase 1,1260 nM (active)
same,Ki,Ephrin type-A receptor 2,> 3160 nM (inactive)
same,Ki,[28],398 nM (active)
same,Ki,[29],316 nM (active)
same,Ki,[30],200 nM (active)
same,Ki,[31],> 7940 nM (inactive)
same,Ki,[32],> 1580 nM (inactive)
same,Ki,[33],> 1580 nM (inactive)
same,Ki,[34],7940 nM (active)
same,Ki,[35],251 nM (active)
same,Ki,[36],> 2000 nM (inactive)
same,Ki,[37],158 nM (active)
same,Ki,[38],316 nM (active)
same,Ki,[39],794 nM (active)
same,Ki,[40],> 1260 nM (inactive)
same,Ki,[41],> 3980 nM (inactive)
same,Ki,[42],100 nM (active)
same,Ki,[43],> 7940 nM (inactive)
same,Ki,[44],501 nM (active)

# — ChEMBL document CHEMBL1201862, “PubChem BioAssay data set” (2004)
